# Counter-ions that a name gives are not always drawn.
# Experiments:
# NCI-H526 cells = test: In vitro cell inhibition assay - NCI-H526 cell proliferation (CellTiter-Glo); format: cell-based; conditions: Homo sapiens, NCI-H526, 120 h, H526 small cell lung cancer cell proliferation, 5 days
# Procedure: 6. In Vitro Cell Inhibition Assay—NCI-H526 Cell Proliferation
# The inhibitory effect of the compounds on cell proliferation was assessed by detecting the number of viable cells using CellTiter-Glo® reagent. NCI-H526 cells in the logarithmic growth phase were collected and inoculated into transparent bottom 96-well plates at a density 1×10^3 cells per well with 100 μL of medium, and incubated at 37° C., 5% CO2 overnight. The compounds were sequentially diluted in a 5-fold concentration gradient with DMSO to obtain 8 different concentrations. These were then diluted with RPMI-640 (containing 10% FBS) cell culture medium to obtain the compound working solution (2×), which was added to the cell supernatant at 100 μL per well. The incubation continued for 5 days at 37° C., 5% CO2. The plate was then removed and equilibrated at room temperature (25° C.) along with the CellTiter-Glo® mixing reagent for 10-30 minutes; 80 μL of the culture medium was carefully aspirated from each well, and 80 μL of CellTiter-Glo® reagent was added. The cells were thoroughly mixed with the CellTiter-Glo® mixing reagent using a microplate shaker for 2 min. and then incubated at room temperature for 10 min. The 96-well plate was subsequently placed on a multifunctional microplate reader to record the Luminescence values (RLU).
# The inhibition rate was calculated using the following formula: […]
# Note: ‘Negative’ refers to the group without inhibitors; ‘Blank’ refers to the group without cells.
# The IC50 value was determined by fitting the inhibition rate by GraphPad Prism software.
# NCI-H69 cells = test: In vitro cell inhibition assay - NCI-H69 cell proliferation (CellTiter-Glo); format: cell-based; conditions: Homo sapiens, NCI-H69, H69 small cell lung cancer cell proliferation
# How it was run: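 Luminescence from CellTiter-Glo reagent served as the viability read-out after cells were exposed to compounds for 7 days at 37° C. Eight concentrations in a 5-fold series were tested in medium with 20% FBS. Inhibition was normalised to untreated and cell-free wells before IC50 fitting.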
# NCI-H1417 cells = test: In vitro cell inhibition assay - H1417 cell proliferation (CellTiter-Glo); format: cell-based; conditions: Homo sapiens, NCI-H1417, H1417 small cell lung cancer cell proliferation
# How it was run: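 Cells exposed to 8 compound concentrations (5-fold dilutions) in BEGM with 10% FBS for 7 days at 37° C., 5% CO2. Viable cells measured by CellTiter-Glo luminescence; inhibition versus no-inhibitor and no-cell controls, IC50 fitted.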
# LSD1 = LSD1 (Homo sapiens (Human), UniProt O60341); test: In vitro enzyme inhibition assay - LSD1 (HTRF); format: biochemical
# HDAC8 = HDAC8 (Homo sapiens (Human), UniProt Q9BY41); test: In vitro enzyme inhibition assay - HDAC (HDAC-Glo I/II), HDAC8; format: biochemical; conditions: read-out: HDAC IC50 (nM) HDAC 8
# How it was run: (§1)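 Eight compound concentrations (5-fold steps from a 1 mM DMSO stock) tested against pan-HDAC, HDAC1 and HDAC8 with HDAC-Glo I/II reagents, luminescence read-out. Percent inhibition normalized to no-inhibitor and no-enzyme wells; IC50 derived by four-parameter logistic fit.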
# pan-HDAC = test: In vitro enzyme inhibition assay - HDAC (HDAC-Glo I/II), pan-HDAC; format: biochemical
# How it was run: as §1
# Sequence of HDAC8 (Q9BY41 whole entry): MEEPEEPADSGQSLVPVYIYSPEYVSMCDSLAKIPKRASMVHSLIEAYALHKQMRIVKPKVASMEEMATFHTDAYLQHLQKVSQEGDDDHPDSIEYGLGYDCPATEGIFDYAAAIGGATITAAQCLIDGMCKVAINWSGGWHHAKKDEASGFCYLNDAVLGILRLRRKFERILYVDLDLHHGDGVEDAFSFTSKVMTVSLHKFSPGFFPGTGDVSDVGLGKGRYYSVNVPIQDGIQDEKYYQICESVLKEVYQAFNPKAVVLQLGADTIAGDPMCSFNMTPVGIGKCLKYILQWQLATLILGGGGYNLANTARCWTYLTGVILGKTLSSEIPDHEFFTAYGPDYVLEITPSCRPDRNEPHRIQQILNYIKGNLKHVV
SMILES,IC50 (NCI-H526 cells) [nM],IC50 (NCI-H69 cells) [nM],IC50 (NCI-H1417 cells) [nM],IC50 (LSD1) [nM],IC50 (HDAC8) [nM],IC50 (pan-HDAC) [nM]
"COc1ccc(-c2cnc(N3CCC(NCc4ccc(/C(C)=C/C(=O)NO)cc4)CC3)c(C#N)c2-c2ccc(C#N)c(F)c2)cc1O [Example 170, (E)-3-(4-(((1-(3-Cyano-4-(4-cyano-3-fluorophenyl)-5-(3-hydroxy-4-methoxyphenyl)pyridin-2-yl)piperidin-4-yl)amino)methyl)phenyl)-N-hydroxybut-2-enamide formate]",27.5,27.6,1.28,0.43,62.7,2
"COc1ccc(-c2cnc(N3CCC(NCc4ccc(/C=C/C(=O)NO)c(C#N)c4)CC3)c(C#N)c2-c2ccc(C#N)c(F)c2)cc1O [Example 162, (E)-3-(2-Cyano-4-((1-(3-cyano-4-(4-cyano-3-fluorophenyl)-5-(3-hydroxy-4-methoxyphenyl)pyridin-2-yl)piperidin-4-yl)amino)methyl) phenyl)-N-hydroxyacrylamide formate]",18.5,21.7,2.98,0.4,209,3.34
"COc1ccc(-c2cnc(N3CCC(NCc4ccc(/C=C/C(=O)NO)cc4Cl)CC3)c(C#N)c2-c2ccc(C#N)c(F)c2)cc1O [Example 156, (E)-3-(3-Chloro-4-((1-(3-cyano-4-(4-cyano-3-fluorophenyl)-5-(3-hydroxy-4-methoxyphenyl)pyridin-2-yl)piperidin-4-yl)amino)methyl) phenyl)-N-hydroxyacrylamide formate]",80.4,58.1,6.64,2.53,731,8.88
"N#Cc1ccc(-c2c(-c3ccc(Cl)c(O)c3)cnc(N3CCC(NCc4cnc(/C=C/C(=O)NO)nc4)CC3)c2C#N)cc1F [Example 159, (E)-3-(5-(((1-(5-(4-Chloro-3-hydroxyphenyl)-3-cyano-4-(4-cyano-3-fluorophenyl)pyridin-2-yl)piperidin-4-yl)amino)methyl)pyrimidin-2-yl)-N-hydroxyacrylamide hydrochloride]",16.1,17.9,3.5,1.82,83.5,2.71
"COc1ccc(-c2cnc(N3CCC(NCc4ccc(/C=C(\F)C(=O)NO)cc4)CC3)c(C#N)c2-c2ccc(C#N)c(F)c2)cc1O [Example 171, (Z)-3-(4-(((1-(3-Cyano-4-(4-cyano-3-fluorophenyl)-5-(3-hydroxy-4-methoxyphenyl)pyridin-2-yl)piperidin-4-yl)amino)methyl)phenyl)-2-fluoro-N-hydroxyacrylamide formate]",12.3,14.5,0.54,0.55,53.1,1.68
"COc1ccc(-c2cnc(N3CCC(NCc4ccc(/C=C/C(=O)NO)cc4)CC3)c(OC)c2-c2ccc(C#N)nc2)cc1O [Example 263, (E)-3-(4-(((1-(6-Cyano-5′-(3-hydroxy-4-methoxyphenyl)-3′-methoxy-[3,4′-bipyridin]-2′-yl)piperidin-4-yl)amino)methyl)phenyl)-N-hydroxyacrylamide formate]",2.22,1.14,1.64,16.8,–,0.34
"COc1ccc(-c2cnc(N3CCC(NCc4ccc(/C=C/C(=O)NO)cc4)CC3)c(F)c2-c2ccc(C#N)nc2)cc1O [Example 268, (E)-3-(4-(((1-(6-Cyano-3′-fluoro-5′-(3-hydroxy-4-methoxyphenyl)-[3,4′-bipyridin]-2′-yl)piperidin-4-yl)amino)methyl)phenyl)-N-hydroxyacrylamide formate]",2.22,1.58,2.03,147,–,0.27
"COc1cc(F)c(-c2cnc(N3CCC(NCc4ccc(/C=C/C(=O)NO)cc4)CC3)c(OC)c2-c2ccc(C#N)nc2)cc1O [Example 265, (E)-3-(4-(((1-(6-Cyano-5′-(2-fluoro-5-hydroxy-4-methoxyphenyl)-3′-methoxy-[3,4′-bipyridin]-2′-yl)piperidin-4-yl)amino)methyl)phenyl)-N-hydroxyacrylamide formate]",5.85,7.2,5.09,10.2,–,0.45
"COc1ccc(-c2cnc(N3CCC(NCc4ccc(/C=C(\F)C(=O)NO)cc4)CC3)c(C#N)c2-c2ccc(C#N)nc2)cc1O [Example 260, (Z)-3-(4-(((1-(3′,6-Dicyano-5′-(3-hydroxy-4-methoxyphenyl)-[3,4′-bipyridin]-2′-yl)piperidin-4-yl)amino)methyl)phenyl)-2-fluoro-N-hydroxyacrylamide dformate]",11.5,8.18,3.02,2.37,–,0.77
"COc1cc(F)c(-c2cnc(N3CCC(NCc4ccc(/C=C/C(=O)NO)cc4)CC3)c(C#N)c2-c2ccc(C#N)nc2)cc1O [Example 255, (E)-3-(4-(((1-(3′,6-Dicyano-5′-(2-fluoro-5-hydroxy-4-methoxyphenyl)-[3,4′-bipyridin]-2′-yl)piperidin-4-yl)amino)methyl)phenyl)-N-hydroxyacrylamide formate]",11,7.82,3.39,1.54,–,0.68
"CC(C)(O)COc1ccc(-c2cnc(N3CCC(NC(C)(C)c4ccc(/C=C/C(=O)NO)cc4)CC3)c(C#N)c2-c2ccc(C#N)c(F)c2)cc1O [Example 223, (E)-3-(4-(2-((1-(3-Cyano-4-(4-cyano-3-fluorophenyl)-5-(3-hydroxy-4-(2-hydroxy-2-methylpropoxy)phenyl)pyridin-2-yl)piperidin-4-yl)amino)propan-2-yl)phenyl)-N-hydroxyacrylamide hydrochloride]",16.8,4.56,3.23,1.01,–,4.37
"COc1ccc(-c2cnc(N3CCC(NCc4ccc(/C=C/C(=O)NO)nc4)CC3)c(OC)c2-c2ccc(C#N)nc2)cc1O [Example 266, (E)-3-(5-(((1-(6-Cyano-5′-(3-hydroxy-4-methoxyphenyl)-3′-methoxy-[3,4′-bipyridin]-2′-yl)piperidin-4-yl)amino)methyl)pyridin-2-yl)-N-hydroxyacrylamide formate]",2.35,2.02,2.09,24.2,–,0.16
"COc1ccc(-c2cnc(N3CCC(NCc4ccc(/C=C/C(=O)NO)cc4F)CC3)c(OC)c2-c2ccc(C#N)nc2)cc1O [Example 264, (E)-3-(4-(((1-(6-Cyano-5′-(3-hydroxy-4-methoxyphenyl)-3′-methoxy-[3,4′-bipyridin]-2′-yl)piperidin-4-yl)amino)methyl)-3-fluorophenyl)-N-hydroxyacrylamide formate]",5.12,1.84,2.2,25.4,–,0.89
"COc1ccc(-c2cnc(N3CCC(NCc4ccc(/C=C/C(=O)NO)c(F)c4)CC3)c(C#N)c2-c2ccc(C#N)nc2)cc1O [Example 258, (E)-3-(4-(((1-(3′,6-Dicyano-5′-(3-hydroxy-4-methoxyphenyl)-[3,4′-bipyridin]-2′-yl)piperidin-4-yl)amino)methyl)-2-fluorophenyl)-N-hydroxyacrylamide formate]",2.09,1.81,1.05,1.41,–,0.3

# Reference: patent publication US20250304549A1, “HYDROXYAMIDE DERIVATIVE AND USE THEREOF” (SICHUAN HUIYU PHARMACEUTICAL CO., LTD., priority 2022, published 2025)
